Assay results from patent US20240043404A1 (AbbVie Inc., priority 2009, published 2024).

system: RS4;11 cells; assay: RS4;11 cell viability assay (CellTiter Glo); type: cell-based, human; settings: Homo sapiens, RS4-11, 48 h, 50,000 cells per well, 10% human serum, 48 hours; read-out: RS4; 11 EC50 Values;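 also: acute lymphoblastic leukemia line RS4,11, EC50 derived from percentage of viable cells after treatment relative to untreated controls, cell killing taken as a measure of Bcl-2 inhibition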
Method: The acute lymphoblastic leukemia (ALL) cell line RS4;11 was used as the primary human cell line to assess the cellular activity of Bcl-2 selective agents in vitro and their efficacy in vivo.
Cell cytotoxicity EC50 values were assessed using CellTiter Glo (Promega) according to the manufacturer's recommendations. The EC50 values were determined as a percentage of viable cells following treatment compared to the untreated control cells.

Structure (SMILES) | EC50 [nM]
CC1(C)CCC(CN2CCN(c3ccc(C(=O)NS(=O)(=O)c4ccc(NC[C@H]5CC[C@@H](O)C5)c([N+](=O)[O-])c4)c(Oc4cnc5[nH]ccc5c4)c3)CC2)=C(c2ccc(Cl)cc2)C1 [Example 158, 4-(4-{[2-(4-chlorophenyl)-4,4-dimethylcyclohex-1-en-1-yl]methyl}piperazin-1-yl)-N-{[4-({[(1S,3R)-3-hydroxycyclopentyl]methyl}amino)-3-nitrophenyl]sulfonyl}-2-(1H-pyrrolo[2,3-b]pyridin-5-yloxy)benzamide] | 17.9
CC1(C)CCC(CN2CCN(c3ccc(C(=O)NS(=O)(=O)c4ccc(NC[C@@H]5CC[C@H](O)C5)c([N+](=O)[O-])c4)c(Oc4cnc5[nH]ccc5c4)c3)CC2)=C(c2ccc(Cl)cc2)C1 [Example 159, 4-(4-{[2-(4-chlorophenyl)-4,4-dimethylcyclohex-1-en-1-yl]methyl}piperazin-1-yl)-N-{[4-({[(1R,3S)-3-hydroxycyclopentyl]methyl}amino)-3-nitrophenyl]sulfonyl}-2-(1H-pyrrolo[2,3-b]pyridin-5-yloxy)benzamide] | 11.8
CC1(C)CCC(CN2CCN(c3ccc(C(=O)NS(=O)(=O)c4ccc(N[C@H]5CCCNC5=O)c([N+](=O)[O-])c4)c(Oc4cnc5[nH]ccc5c4)c3)CC2)=C(c2ccc(Cl)cc2)C1 [Example 160, 4-(4-{[2-(4-chlorophenyl)-4,4-dimethylcyclohex-1-en-1-yl]methyl}piperazin-1-yl)-N-[(3-nitro-4-{[(3S)-2-oxopiperidin-3-yl]amino}phenyl)sulfonyl]-2-(1H-pyrrolo[2,3-b]pyridin-5-yloxy)benzamide] | 83.6
CC1(C)CCC(CN2CCN(c3ccc(C(=O)NS(=O)(=O)c4ccc(NCC5CN(C(CF)CF)C5)c([N+](=O)[O-])c4)c(Oc4cnc5[nH]ccc5c4)c3)CC2)=C(c2ccc(Cl)cc2)C1 [Example 161, 4-(4-{[2-(4-chlorophenyl)-4,4-dimethylcyclohex-1-en-1-yl]methyl}piperazin-1-yl)-N-({4-[({1-[2-fluoro-1-(fluoromethyl)ethyl]azetidin-3-yl}methyl)amino]-3-nitrophenyl}sulfonyl)-2-(1H-pyrrolo[2,3-b]pyridin-5-yloxy)benzamide] | 34.6
CC1(C)CCC(CN2CCN(c3ccc(C(=O)NS(=O)(=O)c4ccc(NCC5CN(C6COC6)C5)c([N+](=O)[O-])c4)c(Oc4cnc5[nH]ccc5c4)c3)CC2)=C(c2ccc(Cl)cc2)C1 [Example 162, 4-(4-{[2-(4-chlorophenyl)-4,4-dimethylcyclohex-1-en-1-yl]methyl}piperazin-1-yl)-N-[(3-nitro-4-{[(1-oxetan-3-ylazetidin-3-yl)methyl]amino}phenyl)sulfonyl]-2-(1H-pyrrolo[2,3-b]pyridin-5-yloxy)benzamide] | 13
CC1(C)CCC(CN2CCN(c3ccc(C(=O)NS(=O)(=O)c4ccc(NCC5CCN(C6COC6)CC5)c([N+](=O)[O-])c4)c(Oc4cnc5[nH]ccc5c4)c3)CC2)=C(c2ccc(Cl)cc2)C1 [Example 163, 4-(4-{[2-(4-chlorophenyl)-4,4-dimethylcyclohex-1-en-1-yl]methyl}piperazin-1-yl)-N-[(3-nitro-4-{[(1-oxetan-3-ylpiperidin-4-yl)methyl]amino}phenyl)sulfonyl]-2-(1H-pyrrolo[2,3-b]pyridin-5-yloxy)benzamide] | 4.32
CC1(C)CCC(CN2CCN(c3ccc(C(=O)NS(=O)(=O)c4ccc(NCC5CCN(C6CC6)CC5)c([N+](=O)[O-])c4)c(Oc4cnc5[nH]ccc5c4)c3)CC2)=C(c2ccc(Cl)cc2)C1 [Example 164, 4-(4-{[2-(4-chlorophenyl)-4,4-dimethylcyclohex-1-en-1-yl]methyl}piperazin-1-yl)-N-[(4-{[(1-cyclopropylpiperidin-4-yl)methyl]amino}-3-nitrophenyl)sulfonyl]-2-(1H-pyrrolo[2,3-b]pyridin-5-yloxy)benzamide] | 14.8
CC1(C)CCC(CN2CCN(c3ccc(C(=O)NS(=O)(=O)c4ccc(NCC5CN(CCF)CCO5)c([N+](=O)[O-])c4)c(Oc4cnc5[nH]ccc5c4)c3)CC2)=C(c2ccc(Cl)cc2)C1 (stereo not drawn) [Example 165, 4-(4-{[2-(4-chlorophenyl)-4,4-dimethylcyclohex-1-en-1-yl]methyl}piperazin-1-yl)-N-{[4-({[4-(2-fluoroethyl)morpholin-2-yl]methyl}amino)-3-nitrophenyl]sulfonyl}-2-(1H-pyrrolo[2,3-b]pyridin-5-yloxy)benzamide] | 5.1
CC1(C)CCC(CN2CCN(c3ccc(C(=O)NS(=O)(=O)c4ccc(NCC5CN(CC(F)F)CCO5)c([N+](=O)[O-])c4)c(Oc4cnc5[nH]ccc5c4)c3)CC2)=C(c2ccc(Cl)cc2)C1 (stereo not drawn) [Example 166, 4-(4-{[2-(4-chlorophenyl)-4,4-dimethylcyclohex-1-en-1-yl]methyl}piperazin-1-yl)-N-{[4-({[4-(2,2-difluoroethyl)morpholin-2-yl]methyl}amino)-3-nitrophenyl]sulfonyl}-2-(1H-pyrrolo[2,3-b]pyridin-5-yloxy)benzamide] | 11.8
CC1(C)CCC(CN2CCN(c3ccc(C(=O)NS(=O)(=O)c4ccc(OCC5(F)CCN(C6COC6)CC5)c([N+](=O)[O-])c4)c(Oc4cnc5[nH]ccc5c4)c3)CC2)=C(c2ccc(Cl)cc2)C1 [Example 167, 4-(4-{[2-(4-chlorophenyl)-4,4-dimethylcyclohex-1-en-1-yl]methyl}piperazin-1-yl)-N-({4-[(4-fluoro-1-oxetan-3-ylpiperidin-4-yl)methoxy]-3-nitrophenyl}sulfonyl)-2-(1H-pyrrolo[2,3-b]pyridin-5-yloxy)benzamide] | 0.93
CC1(C)CCC(CN2CCN(c3ccc(C(=O)NS(=O)(=O)c4ccc(OC[C@@H]5CC(F)(F)CN5C5COC5)c([N+](=O)[O-])c4)c(Oc4cnc5[nH]ccc5c4)c3)CC2)=C(c2ccc(Cl)cc2)C1 [Example 168, 4-(4-{[2-(4-chlorophenyl)-4,4-dimethylcyclohex-1-en-1-yl]methyl}piperazin-1-yl)-N-[(4-{[(2S)-4,4-difluoro-1-oxetan-3-ylpyrrolidin-2-yl]methoxy}-3-nitrophenyl)sulfonyl]-2-(1H-pyrrolo[2,3-b]pyridin-5-yloxy)benzamide] | 88.7
CC1(C)CCC(CN2CCN(c3ccc(C(=O)NS(=O)(=O)c4ccc(NCC5COCCN5C5CCOCC5)c([N+](=O)[O-])c4)c(Oc4cnc5[nH]ccc5c4)c3)CC2)=C(c2ccc(Cl)cc2)C1 (stereo not drawn) [Example 169, 4-(4-{[2-(4-chlorophenyl)-4,4-dimethylcyclohex-1-en-1-yl]methyl}piperazin-1-yl)-N-[(3-nitro-4-{[(4-tetrahydro-2H-pyran-4-ylmorpholin-3-yl)methyl]amino}phenyl)sulfonyl]-2-(1H-pyrrolo[2,3-b]pyridin-5-yloxy)benzamide] | 76.3
CC1(C)CCC(CN2CCN(c3ccc(C(=O)NS(=O)(=O)c4ccc(NCC5COCCN5C5CCC5)c([N+](=O)[O-])c4)c(Oc4cnc5[nH]ccc5c4)c3)CC2)=C(c2ccc(Cl)cc2)C1 (stereo not drawn) [Example 170, 4-(4-{[2-(4-chlorophenyl)-4,4-dimethylcyclohex-1-en-1-yl]methyl}piperazin-1-yl)-N-[(4-{[(4-cyclobutylmorpholin-3-yl)methyl]amino}-3-nitrophenyl)sulfonyl]-2-(1H-pyrrolo[2,3-b]pyridin-5-yloxy)benzamide] | 125
CC1(C)CCC(CN2CCN(c3ccc(C(=O)NS(=O)(=O)c4ccc(NCC5COCCN5C5CCOC5)c([N+](=O)[O-])c4)c(Oc4cnc5[nH]ccc5c4)c3)CC2)=C(c2ccc(Cl)cc2)C1 (stereo not drawn) [Example 171, 4-(4-{[2-(4-chlorophenyl)-4,4-dimethylcyclohex-1-en-1-yl]methyl}piperazin-1-yl)-N-[(3-nitro-4-{[(4-tetrahydrofuran-3-ylmorpholin-3-yl)methyl]amino}phenyl)sulfonyl]-2-(1H-pyrrolo[2,3-b]pyridin-5-yloxy)benzamide] | 52.7
CC1(C)CCC(CN2CCN(c3ccc(C(=O)NS(=O)(=O)c4ccc(NCC5CCN(C(CF)CF)CC5)c([N+](=O)[O-])c4)c(Oc4cnc5[nH]ccc5c4)c3)CC2)=C(c2ccc(Cl)cc2)C1 [Example 172, 4-(4-{[2-(4-chlorophenyl)-4,4-dimethylcyclohex-1-en-1-yl]methyl}piperazin-1-yl)-N-({4-[({1-[2-fluoro-1-(fluoromethyl)ethyl]piperidin-4-yl}methyl)amino]-3-nitrophenyl}sulfonyl)-2-(1H-pyrrolo[2,3-b]pyridin-5-yloxy)benzamide] | 20.5
CC1(C)CCC(CN2CCN(c3ccc(C(=O)NS(=O)(=O)c4ccc(OCC5(F)CCN(C6CC6)CC5)c([N+](=O)[O-])c4)c(Oc4cnc5[nH]ccc5c4)c3)CC2)=C(c2ccc(Cl)cc2)C1 [Example 173, 4-(4-{[2-(4-chlorophenyl)-4,4-dimethylcyclohex-1-en-1-yl]methyl}piperazin-1-yl)-N-({4-[(1-cyclopropyl-4-fluoropiperidin-4-yl)methoxy]-3-nitrophenyl}sulfonyl)-2-(1H-pyrrolo[2,3-b]pyridin-5-yloxy)benzamide] | 5.16
COc1ccc(CNc2ccc(S(=O)(=O)NC(=O)c3ccc(N4CCN(CC5=C(c6ccc(Cl)cc6)CC(C)(C)CC5)CC4)cc3Oc3cnc4[nH]ccc4c3)cc2[N+](=O)[O-])cc1 [Example 174, 4-(4-{[2-(4-chlorophenyl)-4,4-dimethylcyclohex-1-en-1-yl]methyl}piperazin-1-yl)-N-({4-[(4-methoxybenzyl)amino]-3-nitrophenyl}sulfonyl)-2-(1H-pyrrolo[2,3-b]pyridin-5-yloxy)benzamide] | 126
CC1(C)CCC(CN2CCN(c3ccc(C(=O)NS(=O)(=O)c4ccc(NCc5cccc(OC(F)(F)F)c5)c([N+](=O)[O-])c4)c(Oc4cnc5[nH]ccc5c4)c3)CC2)=C(c2ccc(Cl)cc2)C1 [Example 175, 4-(4-{[2-(4-chlorophenyl)-4,4-dimethylcyclohex-1-en-1-yl]methyl}piperazin-1-yl)-N-[(3-nitro-4-{[3-(trifluoromethoxy)benzyl]amino}phenyl)sulfonyl]-2-(1H-pyrrolo[2,3-b]pyridin-5-yloxy)benzamide] | > 1000
